A short description of the data set: Human HepG2 cell viability assay in 384 well format. In kind it is toxicity, cell-based. On the set-up: dose 125 nL, time 70.5 hour; concentration not given beside the values. The conditions noted are these: HepG2 cells, read-out: Inhibition.

Take `Cc1ccc(C2CN(CCCC#N)CCO2)c(C)c1` (centres undefined): the cytotoxicity at 70.5 h is -2.64%.

In the case of `Cn1cc(CNCC(c2ccc(Cl)cc2)n2cccn2)cn1` (centres undefined), the cytotoxicity at 70.5 h is -5.62%.

As to `Cc1noc(CN(CCO)Cc2cc(Br)ccc2F)n1`, the cytotoxicity at 70.5 h was -1.67%.

Turning to `N#Cc1c(CN2CCCC2Cn2cccn2)cn2ccccc12` (centres undefined), the cytotoxicity at 70.5 h stood at 18.8%.

`CC(C)(C)c1nc(CN(CCO)Cc2cc(Br)ccc2F)no1`: the cytotoxicity at 70.5 h is -3.27%.

Take `COCCN1CC(=O)N(C(C)C)C(C)(C)C1`: the cytotoxicity at 70.5 h is 0.521%.

In the case of `Cc1ccc(C2CN(CCCS(=O)(=O)C(C)C)CCO2)c(C)c1` (centres undefined), the cytotoxicity at 70.5 h is -2.16%.

`Cc1noc(CNC(=O)NCC2(C)CCCc3ccccc32)n1` (centres undefined): the cytotoxicity at 70.5 h was -8.6%.

Take `Nc1cccnc1N1CCC(O)CC1`: the cytotoxicity at 70.5 h was -1.82%.

Consider `COc1ccc(Cl)cc1CN1CC(n2cccn2)C1`, for which the cytotoxicity at 70.5 h is -4.9%.

With `CC(SCCC(=O)NC(N)=O)c1c(F)cccc1F` (centres undefined), the cytotoxicity at 70.5 h was -10.5%.

Take `Cc1noc(C)c1S(=O)(=O)N(CC(N)=O)CC(C)C`: the cytotoxicity at 70.5 h is -20.2%.

As for `CC(=O)N1CCCC1C(=O)N1CCC(=Cc2cccc(F)c2)CC1` (centres undefined), the cytotoxicity at 70.5 h is -14.8%.

As to `N#CCCN(Cc1ccco1)C(=O)CCCNC(=O)c1ccccc1`, the cytotoxicity at 70.5 h was -15.9%.

Take `Cc1cccc(C(=O)N2CCN(C)CC2)c1NC(=O)c1ccncc1`: the cytotoxicity at 70.5 h stood at 17.6%.

Take `O=C(CN1CCc2cncnc2C1)NC(C1CC1)C1CC1`: the cytotoxicity at 70.5 h was -12.3%.

With `Cc1cccc(C(=O)N2CCSCC2)c1NC(=O)c1cccnc1`, the cytotoxicity at 70.5 h is -7.35%.

As for `CCC(C)(C)NC(=O)COC(=O)c1cc(C)ccc1NC(=O)N(C)C`, the cytotoxicity at 70.5 h is -7.98%.

With `COC(=O)CN(C(=O)c1ccco1)c1cccc(F)c1`, the cytotoxicity at 70.5 h came to 16.3%.

On to `CN(C(=O)c1ccc(NC(=O)c2cc[nH]n2)cc1)C1CCCCC1`, for which the cytotoxicity at 70.5 h is -9.38%.

In the case of `Cc1cccc(C(=O)N2CCSCC2)c1NC(=O)c1ccsc1`, the cytotoxicity at 70.5 h is -8.36%.

Take `Cn1ccc(C(=O)Nc2nc(-c3ccc(Cl)cc3)n[nH]2)cc1=O`: the cytotoxicity at 70.5 h worked out at 24.6%.

Take `Cc1noc(CCCC(=O)NCC(c2ccco2)N2CCCC2)n1` (centres undefined): the cytotoxicity at 70.5 h was -14.9%.

Turning to `CCc1nnsc1C(=O)NCC1CN(CC(C)C)CCO1` (centres undefined), the cytotoxicity at 70.5 h was found to be 22.5%.

Turning to `Cc1ccc(C(NC(=O)CN2CCc3cncnc3C2)C2CC2)cc1` (centres undefined), the cytotoxicity at 70.5 h was -13.1%.

Turning to `CSCC(C)N(C)C(=O)CN1CCN(c2ccccn2)CC1` (centres undefined), the cytotoxicity at 70.5 h came out at 17.8%.

As for `O=C(CN1CCc2cncnc2C1)NC(c1ccccc1)C1CC1` (centres undefined), the cytotoxicity at 70.5 h is -2.84%.

Regarding `CC(=O)N1CCCC(C(=O)N2CCC(=Cc3cccc(F)c3)CC2)C1` (centres undefined), the cytotoxicity at 70.5 h was -9.9%.

As for `CCOc1ccccc1C(N)CC(C)C` (centres undefined), the cytotoxicity at 70.5 h was -0.686%.

As for `CC(c1ccccn1)N(C)C(=O)CN1CCN(c2ccccn2)CC1` (centres undefined), the cytotoxicity at 70.5 h is -11.5%.

`COc1ccc(CNC(=O)C(NC(=O)Cc2ccccc2)C(C)C)cn1` (centres undefined): the cytotoxicity at 70.5 h came to 30.6%.

Turning to `NC(=O)COc1ccc(C2NC(=O)CN2Cc2ccc(Br)cc2)cc1` (centres undefined), the cytotoxicity at 70.5 h was -14.8%.

Consider `COc1cccnc1NC(=O)c1ccc(COCC(F)(F)F)cc1`, for which the cytotoxicity at 70.5 h was -8.83%.

Take `N#Cc1ccc(CCC(=O)N2CCC(CN3CCOCC3)CC2)cc1`: the cytotoxicity at 70.5 h was found to be 23.1%.

`Cc1cc(C2NC(=O)CN2Cc2ccc(Br)cc2)cc(C)c1O` (centres undefined): the cytotoxicity at 70.5 h amounted to 0.666%.

On to `Cc1n[nH]c(NC(=O)c2ccc(COCC(F)(F)F)cc2)c1C`, for which the cytotoxicity at 70.5 h is -10.3%.

Turning to `COc1ccc(CNC2CCc3ncnn3C2)cc1OCCCC#N` (centres undefined), the cytotoxicity at 70.5 h was -9.41%.

`COc1ccc(CNC2CCC(O)CC2)cc1OCCCC#N` (centres undefined): the cytotoxicity at 70.5 h was -5.82%.

In the case of `CNC(=O)CS(=O)(=O)NC1CCC(C)CC1` (centres undefined), the cytotoxicity at 70.5 h was -15.8%.

Take `CC(Oc1cc(Cl)cc(Cl)c1)C(=O)NCCS(N)(=O)=O` (centres undefined): the cytotoxicity at 70.5 h is -4%.

Consider `N#CCCN(C(=O)CCc1cccnc1)c1ccc2c(c1)OCCO2`, for which the cytotoxicity at 70.5 h is -11.1%.

As to `Cc1noc(C)c1CNC(=O)Nc1ccc(N2CCOC(C)C2)cc1` (centres undefined), the cytotoxicity at 70.5 h is -13.8%.

As for `Cc1nc(CCCNC(=O)c2c(F)cc(F)cc2F)n[nH]1`, the cytotoxicity at 70.5 h is -7.17%.

On to `Cc1ccc(C(NC(=O)C2CC2)c2cccc(S(C)(=O)=O)c2)cc1` (centres undefined), for which the cytotoxicity at 70.5 h was -4.47%.

For `Cc1noc(C)c1CNC(=O)Nc1ccc(N2CCOC2=O)cc1`, the cytotoxicity at 70.5 h is -17.5%.

On to `Cc1cc(C(=O)NC(C)CC(=O)c2cccs2)n(C)n1` (centres undefined), for which the cytotoxicity at 70.5 h is -12.7%.

Regarding `Cc1c(C(=O)NC2CCCOc3cc(Cl)ccc32)cnn1C` (centres undefined), the cytotoxicity at 70.5 h is -15.2%.

As to `Cc1nc(C)c(S(=O)(=O)NC(=O)c2ccsc2)s1`, the cytotoxicity at 70.5 h was -7%.

Take `COc1ccc(CNC2CCc3ncnn3C2)cc1OCC1CC1` (centres undefined): the cytotoxicity at 70.5 h was -14.4%.

As for `CC(C)CC(NCc1cccs1)c1ccccn1` (centres undefined), the cytotoxicity at 70.5 h is -13.2%.

Take `CCC(=O)N(c1ccc(C(=O)OC)cc1C)C(C)C`: the cytotoxicity at 70.5 h is -3.07%.

As for `COc1ccc(NC(=O)Cc2c(C)nn(C)c2C)cc1F`, the cytotoxicity at 70.5 h was 7.37%.

Take `CC(C)CNC(=O)Nc1cccc(OCC#N)c1`: the cytotoxicity at 70.5 h was -7.35%.

Consider `CCC(C)NC(=O)Nc1cccc(OCC#N)c1` (centres undefined), for which the cytotoxicity at 70.5 h is -12.4%.

Take `CCC(C)NC(=O)Nc1cccc(OCCCC#N)c1` (centres undefined): the cytotoxicity at 70.5 h was -8.47%.

As for `CC(C)c1nc(CC(=O)Nc2cnccc2O)cs1`, the cytotoxicity at 70.5 h is -3.73%.

On to `CC(C)(C)c1nc(CC(=O)Nc2cnccc2O)cs1`, for which the cytotoxicity at 70.5 h was -2.57%.

For the molecule `O=C(Nc1ccccn1)c1ccc(F)c(S(=O)(=O)NC2CC2)c1`, the cytotoxicity at 70.5 h was -16.8%.

`CC(C)N1CCC(NC(=O)c2cn(-c3ccc(F)cc3)nn2)C1` (centres undefined): the cytotoxicity at 70.5 h was -16.5%.

Consider `O=C(CCc1ccsc1)NCC1CCN(C2CC2)C1` (centres undefined), for which the cytotoxicity at 70.5 h is -7.4%.

As to `COc1ccc(Br)c(NC(=O)NCc2cnn(C)c2)c1`, the cytotoxicity at 70.5 h was -13.3%.

Regarding `CCc1cc(NCCCNS(C)(=O)=O)nc(-c2ccccn2)n1`, the cytotoxicity at 70.5 h is -7.43%.

Consider `O=C(NC1CCCN(Cc2c(F)cccc2F)C1)c1cc[nH]n1` (centres undefined), for which the cytotoxicity at 70.5 h was -18%.

For `COC(=O)c1ccc(N(C(=O)c2ccncc2)C(C)C)c(C)c1`, the cytotoxicity at 70.5 h was -17.2%.

Turning to `COc1ccc(C)nc1NC(=O)CCc1c(C)nn(C)c1C`, the cytotoxicity at 70.5 h stood at 6.42%.

As for `O=C(NCc1nncn1C1CC1)c1ccccc1Oc1cccnc1`, the cytotoxicity at 70.5 h was -7.51%.

On to `COc1ncc(NCc2ccc(Cl)c(Cl)c2)cc1C(N)=O`, for which the cytotoxicity at 70.5 h was -5.01%.

As to `Cc1ccc(C(N)=O)cc1NCCOc1cccc(C#N)c1`, the cytotoxicity at 70.5 h is -4.01%.

As to `Cc1ccc(NS(=O)(=O)c2c[nH]c3ncccc23)nc1`, the cytotoxicity at 70.5 h is -2%.

With `Cc1cc(NS(=O)(=O)c2c[nH]c3ncccc23)no1`, the cytotoxicity at 70.5 h was 0.354%.

As for `Clc1cnccc1N1CCC(OC2CCOCC2)CC1`, the cytotoxicity at 70.5 h was -1.59%.

`CCCN(C1CCc2ccccc2C1)S(C)(=O)=O` (centres undefined): the cytotoxicity at 70.5 h was -2.87%.

In the case of `O=C(N1CCOCC1)N1CCN(c2ccncc2Cl)CC1`, the cytotoxicity at 70.5 h was 1.32%.

On to `Cc1cc(C)n(-c2ccc(N3CCCSCC3)nc2)n1`, for which the cytotoxicity at 70.5 h was -0.674%.

In the case of `Cc1cc(C)n(-c2ccc(N3CCC4(CC3)OCCO4)nc2)n1`, the cytotoxicity at 70.5 h came out at 3.59%.

Take `Clc1cnccc1N1CCCC2(CCCOC2)C1` (centres undefined): the cytotoxicity at 70.5 h was determined as 1.82%.

Take `CC(=O)NCCCNCc1ccc(Cl)c2cccnc12`: the cytotoxicity at 70.5 h worked out at 0.472%.

Turning to `Cc1c(NCCCOc2cccc(C#N)c2)cccc1C(N)=O`, the cytotoxicity at 70.5 h came out at 6.97%.

On to `CCCN(CCS(C)(=O)=O)C1CCc2ccccc2C1` (centres undefined), for which the cytotoxicity at 70.5 h is -0.462%.

As to `OCC(CO)Nc1cccc(C(F)(F)F)n1`, the cytotoxicity at 70.5 h was 1.04%.

Turning to `CCN(CC1CCCO1)C(=O)CSCC(=O)Nc1ccc(C)cc1` (centres undefined), the cytotoxicity at 70.5 h was -1.48%.

Take `CCN(CC1CCOC1)C(=O)CSCC(=O)Nc1ccc(C)cc1` (centres undefined): the cytotoxicity at 70.5 h was -2.49%.

Regarding `CCS(=O)(=O)NCCNCc1ccc(Cl)c2cccnc12`, the cytotoxicity at 70.5 h was -0.568%.

Turning to `CC(C)c1ncc2c(n1)CN(Cc1cccc3c1OCCO3)CC2`, the cytotoxicity at 70.5 h was 0.0459%.

On to `COc1ccc(CCNC2CCCN(c3ccc(C)nn3)C2)cc1` (centres undefined), for which the cytotoxicity at 70.5 h was -7.85%.

Take `CCOC(C)c1nc(CN2CCC(C3OCCO3)CC2)cs1` (centres undefined): the cytotoxicity at 70.5 h was found to be 9.96%.

As to `CC(C)CC(CNC(=O)c1cccnc1Oc1cccnc1)N(C)C` (centres undefined), the cytotoxicity at 70.5 h was 8.64%.

Turning to `Cc1nc(C)n(CC2CCCN(CCCS(=O)(=O)N(C)C)C2)n1` (centres undefined), the cytotoxicity at 70.5 h was -0.887%.

As for `O=C(NCc1ccc(CN2CCCCC2)cc1)Nc1cccnc1`, the cytotoxicity at 70.5 h was -1.13%.

Consider `Cc1ccc(-c2noc(CN3CCC(c4ccn[nH]4)CC3)n2)cc1`, for which the cytotoxicity at 70.5 h turned out to be 0.504%.

As for `Cc1cc(Br)oc1C(=O)N1CCC(N(C)C)CC1`, the cytotoxicity at 70.5 h came to 33.8%.

`CC(C)CCNC(=O)c1cccnc1Oc1cccnc1`: the cytotoxicity at 70.5 h is -6.47%.

On to `COc1ccc(C(CO)NC(=O)Nc2cccc(F)c2)cc1` (centres undefined), for which the cytotoxicity at 70.5 h was -4.24%.

On to `COc1cc(C)nc(N2CCN(C(=O)CCc3ccncc3)CC2)n1`, for which the cytotoxicity at 70.5 h stood at 28%.

For the molecule `Cc1cc(C)cc(CNCCS(=O)(=O)N2CCOCC2)c1`, the cytotoxicity at 70.5 h was determined as 33.6%.

For the molecule `CCOC(C)c1nc(CN2CCC(NC(C)C)CC2)cs1` (centres undefined), the cytotoxicity at 70.5 h was -2.82%.

As for `N#Cc1ccccc1OCCN1CCCC(c2noc(C3CC3)n2)C1` (centres undefined), the cytotoxicity at 70.5 h came to 3.57%.

Turning to `O=S(=O)(CCNCc1ccc(Cl)cc1)N1CCOCC1`, the cytotoxicity at 70.5 h turned out to be 15.5%.

As for `O=C(CC1CCCN1S(=O)(=O)N1CCCCC1)c1cccs1` (centres undefined), the cytotoxicity at 70.5 h is -3.32%.

Consider `CSc1ccc(CNCCS(=O)(=O)N2CCOCC2)cc1`, for which the cytotoxicity at 70.5 h is -3.35%.

For the molecule `CCN1CCC(NC(=O)CN2CCCC2Cn2cccn2)CC1` (centres undefined), the cytotoxicity at 70.5 h was found to be 32.9%.

For the molecule `O=C(CN1CCCC1Cn1cccn1)NC1CCN(C2CC2)CC1` (centres undefined), the cytotoxicity at 70.5 h was -2.29%.

On to `COCCn1cc(C(=O)N2CCCC2c2cnn(C)c2)ccc1=O` (centres undefined), for which the cytotoxicity at 70.5 h is -6.63%.

Consider `Cc1ccccc1-c1noc(CN2CCC(c3ccn[nH]3)CC2)n1`, for which the cytotoxicity at 70.5 h came out at 30.9%.

(Values after ChEMBL document CHEMBL3507680, “University of Dundee, Gates Library screen for HepG2 cell viability”.)
